# pIC50: −log10 of the molar value. Where two headings read alike, the source gives them in different places.
# How the values were obtained:
# [1] = test system: HAP1 MTAP-deleted cell line; test: Viability assay, HAP1 MTAP-deleted cell line; type: cell-based; conditions: Homo sapiens
# [2] = test system: SDMA in HAP1 MTAP-intact cell line (PRMT5 inhibition); test: SDMA in-cell western assay, HAP1 MTAP-intact cell line; conditions: Homo sapiens, HAP1, read-out: Hap1 MTAP intact IC50
# [3] = test system: SDMA in HAP1 MTAP-deleted (MTAP-null) cell line (PRMT5 inhibition); test: SDMA in-cell western assay, HAP1 MTAP-deleted cell line; conditions: for pIC50 / IC90: Homo sapiens; for pIC50: HAP1, read-out: Hap1 MTAP deleted IC50; for IC90: HAP1, read-out: Hap1 MTAP deleted IC90; for Hap1 MTAP intact/deleted ratio: ratio of SDMA IC50 in HAP1 MTAP-intact to HAP1 MTAP-deleted cell line
# [4] = viability assay, HAP1 MTAP-deleted cell line, read-out: Hap1 MTAP deleted viability IC50
SMILES,pIC50 [2],pIC50 [3],IC90 [3] [nM],"pIC50 [1, 4]",Hap1 MTAP intact/deleted ratio [3],"pIC50 ([1]; HAP1, read-out: Hap1 MTAP deleted viability IC50)"
"CCN(Cc1ccc(S(F)(F)(F)(F)F)cc1)C(=O)C(=O)Nc1cnc(N)c2cn[nH]c12 [Compound 150, N-(4-amino-1H-pyrazolo[4,3-c]pyridin-7-yl)-N′-ethyl-N′-[[4-(pentafluoro-sulfanyl)phenyl]methyl]oxamide]",7.30 to 8.30,> 8.30,< 75,> 7.00,C (IC50 ratio of less than 15 fold),
"Cc1cc(NC(=O)C(=O)N(Cc2ccc(C(F)(F)F)cn2)[C@H](C)c2ncccn2)cnc1N [Compound 6, N-(6-amino-5-methyl-3-pyridyl)-N′—[(1R)-1-pyrimidin-2-ylethyl]-N′-[[5-(trifluoromethyl)-2-pyridyl]methyl]oxamide]",> 8.30,> 8.30,> 125,6.00 to 7.00,C (IC50 ratio of less than 15 fold),
"Cc1ccccc1CN(Cc1ccc(Cl)cc1)C(=O)C(=O)Nc1cnc(N)c2cn[nH]c12 [Compound 109, N-(4-amino-1H-pyrazolo[4,3-c]pyridin-7-yl)-N′-[(4-chlorophenyl)methyl]-N′-(o-tolylmethyl)oxamide]",7.30 to 8.30,> 8.30,< 75,> 7.00,C (IC50 ratio of less than 15 fold),
"COC[C@@H](C1CC1)N(Cc1ccc(C(F)(F)F)cn1)C(=O)C(=O)Nc1cncc(C(N)=O)c1 [Compound 34, (R)-N1-(5-carbamoylpyridin-3-yl)-N2-(1-cyclopropyl-2-methoxyethyl)-N2-((5-(trifluoromethyl)pyridin-2-yl)methyl)oxalamide]",< 7.30,7.30 to 8.30,75 to 125,6.00 to 7.00,B (IC50 ratio greater than or equal to 15 fold but lower than 30 fold),
"CC[C@H](C)CN(Cc1ccc(C(F)(F)F)cn1)C(=O)C(=O)Nc1cnc(N)c2cn[nH]c12 [Compound 64, (S)—N^1-(4-amino-1H-pyrazolo[4,3-c]pyridin-7-yl)-N^2-(2-methylbutyl)-N^2-((5-(trifluoromethyl)pyridin-2-yl)methyl)oxalamide]",> 8.30,> 8.30,< 75,> 7.00,C (IC50 ratio of less than 15 fold),
"Cc1ccc(CN(Cc2ccccc2)C(=O)C(=O)Nc2cnc(N)c3cn[nH]c23)c(C)c1 [Compound 98, N-(4-amino-1H-pyrazolo[4,3-c]pyridin-7-yl)-N′-benzyl-N′—[(2,4-dimethylphenyl)methyl]oxamide]",7.30 to 8.30,> 8.30,< 75,> 7.00,B (IC50 ratio greater than or equal to 15 fold but lower than 30 fold),
"CNc1cccc(CN(Cc2ccccc2)C(=O)C(=O)Nc2cnc(N)c3cn[nH]c23)c1 [Compound 93, N-(4-amino-1H-pyrazolo[4,3-c]pyridin-7-yl)-N′-benzyl-N′-[[3-(methylamino)phenyl]methyl]oxamide]",7.30 to 8.30,> 8.30,< 75,> 7.00,B (IC50 ratio greater than or equal to 15 fold but lower than 30 fold),
"Nc1ncc(NC(=O)C(=O)N(Cc2ccccn2)Cc2ccc(F)cc2Cl)c2[nH]ncc12 [Compound 77, N-(4-amino-1H-pyrazolo[4,3-c]pyridin-7-yl)-N′-[(2-chloro-4-fluoro-phenyl)methyl]-N′-(2-pyridylmethyl)oxamide]",7.30 to 8.30,> 8.30,< 75,> 7.00,B (IC50 ratio greater than or equal to 15 fold but lower than 30 fold),
"Cn1nccc1CN(Cc1ccccc1)C(=O)C(=O)Nc1cnc(N)c2cn[nH]c12 [Compound 125, N-(4-amino-1H-pyrazolo[4,3-c]pyridin-7-yl)-N′-benzyl-N′-[(2-methylpyrazol-3-yl)methyl]oxamide]",7.30 to 8.30,> 8.30,< 75,> 7.00,B (IC50 ratio greater than or equal to 15 fold but lower than 30 fold),
"CC(C)C(C)N(Cc1ccc(C(F)(F)F)cn1)C(=O)C(=O)Nc1cncc(C(N)=O)c1 (centres unmarked) [Compound 20, N-(5-carbamoyl-3-pyridyl)-N′-(1,2-dimethylpropyl)-N′-[[5-(trifluoromethyl)-2-pyridyl]methyl]oxamide]",< 7.30,7.30 to 8.30,> 125,6.00 to 7.00,B (IC50 ratio greater than or equal to 15 fold but lower than 30 fold),
"Nc1ncc(NC(=O)C(=O)N(Cc2ccccc2)Cc2ccccc2Cl)c2[nH]ncc12 [Compound 87, N-(4-amino-1H-pyrazolo[4,3-c]pyridin-7-yl)-N′-benzyl-N′-[(2-chlorophenyl)methyl]oxamide]",7.30 to 8.30,> 8.30,< 75,> 7.00,B (IC50 ratio greater than or equal to 15 fold but lower than 30 fold),
"Nc1ncc(NC(=O)C(=O)N(Cc2ccc(C(F)(F)F)cn2)[C@@H]2CCC[C@H]2OC(F)F)cc1C1CC1 [Compound 4, N1-(6-amino-5-cyclopropylpyridin-3-yl)-N^2-((1R,2R)-2-(difluoromethoxy)cyclopentyl)-N^2-((5-(trifluoromethyl)pyridin-2-yl)methyl)oxalamide]",< 7.30,7.30 to 8.30,75 to 125,6.00 to 7.00,A (IC50 ratio greater than or equal to 30 fold),
"NC(=O)c1ccc(CN(Cc2ncccn2)C(=O)C(=O)Nc2cnc(N)c3cn[nH]c23)nc1 [Compound 136, N-(4-amino-1H-pyrazolo[4.3-c]pyridin-7-yl)-N′-[(5-carbamoyl-2-pyridyl)methyl]-N′-(pyrimidin-2-ylmethyl)oxamide]",< 7.30,< 7.30,> 125,< 6.00,C (IC50 ratio of less than 15 fold),
"Cc1cc(F)cnc1CN(Cc1ccccc1)C(=O)C(=O)Nc1cnc(N)c2cn[nH]c12 [Compound 116, N-(4-amino-2H-pyrazolo[4,3-c]pyridin-7-yl)-N′-benzyl-N′-[(5-fluoro-3-methyl-2-pyridyl)methyl]oxamide]",7.30 to 8.30,> 8.30,< 75,> 7.00,B (IC50 ratio greater than or equal to 15 fold but lower than 30 fold),

# Second part, led by results:
pIC50 [2],pIC50 [3],IC90 [3] [nM],SMILES,"pIC50 [1, 4]",Hap1 MTAP intact/deleted ratio [3],"pIC50 ([1]; HAP1, read-out: Hap1 MTAP deleted viability IC50)"
7.30 to 8.30,> 8.30,< 75,"CC(c1ccc(C(F)(F)F)cc1)N(C(=O)C(=O)Nc1cnc(N)c2cn[nH]c12)C1CCC1 (centres unmarked) [Compound 192, N-(4-Amino-1H-pyrazolo[4,3-c]pyridin-7-yl)-N′-cyclobutyl-N′-[1-[4-(trifluoromethyl)phenyl]ethyl]oxamide]",> 7.00,B (IC50 ratio greater than or equal to 15 fold but lower than 30 fold),
< 7.30,> 8.30,< 75,"Nc1ncc(NC(=O)C(=O)N(Cc2ccccc2)CC2CCCCC2)c2[nH]ncc12 [Compound 175, N-(4-amino-1H-pyrazolo[4,3-c]pyridin-7-yl)-N′-benzyl-N′-(cyclohexylmethyl)oxamide]",> 7.00,A (IC50 ratio greater than or equal to 30 fold),
7.30 to 8.30,> 8.30,< 75,"Cc1cccc(CN(Cc2ccccc2)C(=O)C(=O)Nc2cnc(N)c3cn[nH]c23)n1 [Compound 191, N-(4-amino-1H-pyrazolo[4,3-c]pyridin-7-yl)-N′-benzyl-N′-[(6-methyl-2-pyridyl)methyl]oxamide]",> 7.00,A (IC50 ratio greater than or equal to 30 fold),
7.30 to 8.30,> 8.30,< 75,"Nc1ncc(NC(=O)C(=O)N(Cc2ccccc2)Cc2ncccc2C(F)(F)F)c2[nH]ncc12 [Compound 154, N-(4-amino-1H-pyrazolo[4,3-c]pyridin-7-yl)-N′-benzyl-N′-[[3-(trifluoromethyl)-2-pyridyl]methyl]oxamide]",> 7.00,A (IC50 ratio greater than or equal to 30 fold),
< 7.30,7.30 to 8.30,> 125,"C[C@@H](c1ccc(C(F)(F)F)cc1C(F)(F)F)N(C)C(=O)C(=O)Nc1cnc(N)c2cn[nH]c12 [Compound 169, N-(4-Amino-2H-pyrazolo[4,3-c]pyridin-7-yl)-N′-methyl-N′—[(1S)-1-[2,4-bis (trifluoromethyl)phenyl]ethyl]oxamide]",,,6.00 to 7.00
7.30 to 8.30,7.30 to 8.30,75 to 125,"Nc1ncc(NC(=O)C(=O)N(Cc2ccc(C(F)(F)F)cn2)Cc2ccccc2C(F)(F)F)c2[nH]ncc12 [Compound 163, N-(4-amino-1H-pyrazolo[4,3-c]pyridin-7-yl)-N′-[[2-(trifluoromethyl)phenyl]methyl]-N′-[[5-(trifluoromethyl)-2-pyridyl]methyl]oxamide]",> 7.00,C (IC50 ratio of less than 15 fold),
< 7.30,7.30 to 8.30,> 125,"CC(C)c1ccccc1CN(C)C(=O)C(=O)Nc1cnc(N)c2cn[nH]c12 [Compound 183, N-(4-amino-1H-pyrazolo[4,3-c]pyridin-7-yl)-N′-[(2-isopropylphenyl)methyl]-N′-methyl-oxamide]",6.00 to 7.00,A (IC50 ratio greater than or equal to 30 fold),
